Data as given in PMC12069643, “Structural insights into the selective recognition of RF-amide peptides by neuropeptide FF receptor 2” (EMBO Reports, 2025).
Like-named read-outs stand apart in the source and are kept apart here. Values belong to the molecule of their own block, whether it stands above or below them. Ends that are not written are not given here.

What was measured:
[1] = biological target: NPFFR1 mutant (Q37^NtL, I293^6.58S, and T307^7.31N) (UniProt Q9GZQ6)
human NPFFR2 = biological target: T1, human NPFFR2 (Homo sapiens, UniProt Q9Y5X5); assay: GloSensor forskolin-stimulated cAMP assay, NPFFR2 wild-type; assay type: cell-based; settings: NPFFR2 wild-type (100% DNA treated for hNPSF), HEK293T, 0.5 μM forskolin; for Emax: HEK-293T, mean of three independent experiments ± SEM; for EC50: three independent experiments
T1 construct: expressed in transfected cells; host or cells: HEK293T (pcDNA3.1 NPFFR2)
Description: Figure 1 Structural analysis and downstream signaling of NPFFR2. (A) The concentration-dependent response of various agonists on NPFFR2 is measured using a forskolin-stimulated cAMP assay. Data points represent mean values from three independent experiments (each with technical triplicate), with error bars indicating SEM (standard error of the mean). Raw data were normalized to the vehicle-treated (0%) and 0.5 μM forskolin-treated (100%) responses. […] (C) The extracellular loop 2 (ECL2, pink) and N-terminus (Nt, blue) of NPFFR2 are depicted using a cartoon model. […] Source data are available online for this figure.
(§1) HEK293T cells were seeded at a density of 6 × 10^5 cells per well in a six-well cell culture plate (SPL) and co-transfected with expression plasmids encoding GloSensor™ and each NPFFR construct, using 1 µg to 4 µg of DNA per well according to the Lipofectamine™ 2000 Transfection Reagent (Invitrogen) protocol. After 48 h of incubation under standard conditions (37 °C, 5% CO2), the cells were detached using Accutase solution (Sigma-Aldrich) and washed with PBS. The cells were then pelleted by centrifugation, resuspended in CO2-independent medium (Gibco) supplemented with Firefly D-Luciferin (0.5 mg/ml, NanoLight), and distributed into a 96-well white plate (SPL). After a 2-hour incubation, serially diluted ligands and 0.5 μM forskolin were added to each well to detect ligand-induced signaling. Luminescence signals were measured using a Mithras LB940 instrument (Berthold) with a measurement time of 1 s per well.
(§2) Data from the GloSensor^TM cAMP signaling assays were analyzed using GraphPad Prism with a three-parameter logistic model to fit concentration-response curves for both wild-type (WT) and mutant receptors. Mutant expression levels and DNA amounts were adjusted to match WT conditions. ΔpEC50 values were calculated by subtracting the log EC50 of the WT receptor from that of each mutant. Results are presented as mean ± SEM from three independent biological replicates, each performed in duplicate or more. Error bars represent the SEM. Statistical significance was assessed using one-way ANOVA, followed by Dunnett’s tests comparisons to the WT receptor. Significance levels were reported as follows: ns (not significant, P > 0.05); *P < 0.05; **P < 0.01; ***P < 0.001.

[2] = biological target: T2, NPFFR1-chimera (Q37^NtL/I293^6.58S/T307^7.31N) (Homo sapiens, UniProt Q9GZQ6, I293S/Q37L/T307N); assay: GloSensor forskolin-stimulated cAMP assay, NPFFR1 triple mutant (chimera Q37NtL/I2936.58S/T3077.31N); assay type: cell-based; settings: HEK293T, 0.5 μM forskolin, three independent experiments
T2 construct: expressed in transfected cells; host or cells: HEK293T
Description: (§3) Figure 4 RF-amide ligand selectivity of NPFFR2 and NPFFR1. (A) Sequence alignment between human NPFFs and RFRPs, the endogenous ligands of NPFFRs, which share PXRF-NH2 motif at their C-terminus (shown in green letters). Key residues at the fifth and sixth positions from the C-terminus, are highlighted in bold. […] (B) The concentration-dependent response of various agonists on NPFFR1 was measured using a forskolin-stimulated cAMP assay. Data points represent the mean values from three independent experiments (each with technical triplicate), with error bars indicating SEM. Raw data were normalized to the vehicle-treated (0%) and 0.5 μM forskolin-treated (100%) responses. (C) Structural comparison between the binding modes of hNPSF to NPFFR2 and GnIH to NPFFR1. An AlphaFold2 prediction model of the GnIH–NPFFR1 complex was generated using the hNPSF–NPFFR2 complex structure as a template. The hydrophobicity of NPFFRs is shown with surface representation, where purple indicates hydrophilic regions and bronze indicates hydrophobic regions. […] (D) The cAMP response to the ligands hNPSF and GnIH was measured for both wild-type NPFFR1 and a mutant form of NPFFR1 using a forskolin-stimulated cAMP assay. […] Symbols represent mean values from three independent experiments, each conducted in technical triplicates, with error bars indicating SEM. Responses were normalized to vehicle-treated controls (0%) and 0.5 μM forskolin-treated controls (100%). Source data are available online for this figure.
To further validate whether these specific residues in NPFFR1 affect ligand selectivity, we generated a triple mutant of NPFFR1, in which residues Q37^Nt, I293^6.58, and T307^7.31 of NPFFR1 were replaced by the corresponding NPFFR2 residues, Leu, Ser, and Asn, respectively (Appendix Fig. S10). […]
HEK293T cells were seeded at a density of 6 × 10^5 cells per well in a six-well cell culture plate (SPL) and co-transfected with expression plasmids encoding GloSensor™ and each NPFFR construct, using 1 µg to 4 µg of DNA per well according to the Lipofectamine™ 2000 Transfection Reagent (Invitrogen) protocol. […] Luminescence signals were measured using a Mithras LB940 instrument (Berthold) with a measurement time of 1 s per well.
as §2, with “Results are presented as mean ± SEM from three independent biological replicates, each performed in duplicate or more. Error bars represent the SEM.” left out, “Significance levels were reported as follows: ns (not significant, P > 0.05); *P < 0.05; **P < 0.01; ***P < 0.001.” left out

human NPFFR1 = biological target: T3, human NPFFR1 (Homo sapiens, UniProt Q9GZQ6); assay: GloSensor forskolin-stimulated cAMP assay, NPFFR1 wild-type; assay type: cell-based; settings: for Emax: HEK-293T, read-out: Emax ± SEM
T3 construct: expressed in transfected cells; host or cells: HEK293T (pcDNA3.1 NPFFR1)
Description: as §3, with “(A) Sequence alignment between human NPFFs and RFRPs, the endogenous ligands of NPFFRs, which share PXRF-NH2 motif at their C-terminus (shown in green letters).” left out
as §1, §2

[3] = biological target: NPFFR1 mutant (Q37^NtL, I293^6.58S, and T307^7.31N) (UniProt Q9GZQ6 1-430, Q37^NtL | I293^6.58S | T307^7.31N); assay: cell-based or functional assay
[4] = biological target: T4, human Neuropeptide FF Receptor 2 (8-420) (human, UniProt Q9Y5X5-2 8-420); assay: cryo-EM structure; purified NPFFR2, Gi heterotrimer and scFv16 mixed 1:1.5:2 with 0.01 mM hNPSF, HRV3C protease and apyrase, overnight at 4 °C; M1 anti-FLAG column and SEC in 20 mM Tris-Cl pH 8.0, 150 mM NaCl, LMNG/CHS, 100 nM hNPSF; global resolution 3.2 Å; settings: both partners purified
T4 construct: human NPFFR2, residues 8-420; GFP tag cut off with HRV3C protease while the complex was assembled; the 8xHis tag follows GFP; In the final model the N-terminal 24 residues and the residues beyond 348 are missing; also called NPFFR2; NPFF receptor 2; source: Sf9, purified (Ni-NTA; in LMNG/CHS); not shown: FLAG, N-terminal, kept; GFP, C-terminal, cleaved; His8, C-terminal, cleaved
T4 sequence (Q9Y5X5 110-522): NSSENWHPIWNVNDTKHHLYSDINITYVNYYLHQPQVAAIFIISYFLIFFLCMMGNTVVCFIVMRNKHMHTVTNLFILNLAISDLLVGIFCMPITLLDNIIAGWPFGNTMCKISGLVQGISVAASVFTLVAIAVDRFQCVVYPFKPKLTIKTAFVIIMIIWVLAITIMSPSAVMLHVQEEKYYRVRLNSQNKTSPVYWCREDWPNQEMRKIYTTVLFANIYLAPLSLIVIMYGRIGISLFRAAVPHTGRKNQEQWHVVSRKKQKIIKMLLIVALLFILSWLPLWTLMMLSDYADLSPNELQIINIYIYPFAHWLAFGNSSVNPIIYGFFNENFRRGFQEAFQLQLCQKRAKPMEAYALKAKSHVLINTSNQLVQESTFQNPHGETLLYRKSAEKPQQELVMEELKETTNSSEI

T3 sequence (Q9GZQ6 whole entry): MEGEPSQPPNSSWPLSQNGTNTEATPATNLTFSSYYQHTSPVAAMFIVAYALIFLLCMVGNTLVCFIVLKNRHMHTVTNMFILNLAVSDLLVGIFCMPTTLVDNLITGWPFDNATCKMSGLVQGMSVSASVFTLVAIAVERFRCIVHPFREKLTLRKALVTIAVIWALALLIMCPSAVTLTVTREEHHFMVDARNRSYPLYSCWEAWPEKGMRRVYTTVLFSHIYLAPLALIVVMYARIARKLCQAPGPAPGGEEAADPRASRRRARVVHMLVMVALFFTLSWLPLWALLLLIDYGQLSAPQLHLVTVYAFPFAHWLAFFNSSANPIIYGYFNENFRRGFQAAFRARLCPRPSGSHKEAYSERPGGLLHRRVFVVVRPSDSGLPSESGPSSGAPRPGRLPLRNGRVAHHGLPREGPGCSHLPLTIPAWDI
T1 sequence (Q9Y5X5 103-522): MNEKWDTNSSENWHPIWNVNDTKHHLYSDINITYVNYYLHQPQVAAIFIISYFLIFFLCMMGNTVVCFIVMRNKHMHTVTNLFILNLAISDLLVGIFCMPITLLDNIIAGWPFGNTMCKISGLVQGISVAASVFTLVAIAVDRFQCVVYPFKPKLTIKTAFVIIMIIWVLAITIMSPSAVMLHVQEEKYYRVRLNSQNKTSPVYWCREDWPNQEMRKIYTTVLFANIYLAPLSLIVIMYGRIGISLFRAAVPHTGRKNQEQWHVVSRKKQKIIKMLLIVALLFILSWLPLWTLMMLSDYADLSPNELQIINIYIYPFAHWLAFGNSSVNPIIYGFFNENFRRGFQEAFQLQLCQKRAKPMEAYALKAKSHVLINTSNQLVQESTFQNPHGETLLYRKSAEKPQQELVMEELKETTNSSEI
T2 sequence (Q9GZQ6 whole entry Q37L/I293S/T307N): as the sequence (Q9GZQ6 whole entry) above, with Q37L, I293S, T307N counted along it
NPFFR1 mutant (Q37^NtL, I293^6.58S, and T307^7.31N) (UniProt Q9GZQ6 1-430, Q37^NtL | I293^6.58S | T307^7.31N), sequence (Q9GZQ6 other isoform, or with tags, fused parts or gaps with the stated changes): as the sequence (Q9GZQ6 whole entry) above, with Q37L, I293S, T307N counted along it
NPFFR1 mutant (Q37^NtL, I293^6.58S, and T307^7.31N) (UniProt Q9GZQ6), sequence (Q9GZQ6 other isoform, or with tags, fused parts or gaps mutant): as the sequence (Q9GZQ6 whole entry) above, with Q37L, I293S, T307N counted along it

Emax (human NPFFR2): 78 ± 3% | EC50 (human NPFFR2): 0.631 µM
Molecule: CC(C)C[C@H](NC(=O)[C@H](CC(N)=O)NC(=O)[C@@H]1CCCN1C(=O)[C@@H](N)C(C)C)C(=O)N1CCC[C@H]1C(=O)N[C@@H](CCC(N)=O)C(=O)N[C@@H](CCCNC(=N)N)C(=O)N[C@@H](Cc1ccccc1)C(N)=O [NPVF]

forskolin-stimulated cAMP assay (GloSensor, HEK293T): response to hNPSF, against wild-type NPFFR1 [3]: ~2 fold | binding result [4]: binds
B1: human NPSF (SQAFLFQPQRF-NH2) (peptide)
peptide: SQAFLFQPQRF-NH2
notes: human form of NPSF (SQA-NPFF), an RF-amide peptide of the NPFF series; also called hNPSF; SQA-NPFF; source: synthetic peptide; bought: Cusabio (custom order)

Continued, molecule first:

Molecule: GnIH/RFRP-3 (peptide)
fold decrease in forskolin-stimulated cAMP assay (GloSensor, HEK293T): response to GnIH, against wild-type NPFFR1 [1]: 30 fold

Molecule: MPHSFANLPLRF-NH2 [GnIH] [listing 1 of 2 here]
Emax ([2]; HEK-293T): 80 ± 2% | Emax (human NPFFR2): 81 ± 2% | Emax (human NPFFR1; NPFFR1 wild-type, HEK293T, 0.5 μM forskolin, three independent experiments): 80 ± 3%

Molecule: AGEGLNSQFWSLAAPQRF-NH2 [NPAF]
Emax (human NPFFR2): 80 ± 2% | EC50 (human NPFFR2): 0.00631 µM | EC50 (human NPFFR1): 0.2 µM | Emax (human NPFFR1): 83 ± 3%

Molecule: MPHSFANLPLRF-NH2 [GnIH] [listing 2 of 2 here]
EC50 [2]: 0.1 µM | EC50 (human NPFFR2): 0.158 µM | EC50 (human NPFFR1; NPFFR1 wild-type, HEK293T, 0.5 μM forskolin, three independent experiments, read-out: pEC50 ± SEM (converted)): 0.00316 µM
